Assay results: ChEMBL document CHEMBL4396916, “Novel potent substituted 4-amino-2-thiopyrimidines as dual VEGFR-2 and BRAF kinase inhibitors” (Eur J Med Chem, 2019)
pIC50: −log10 of the molar value. Values belong to the compound of their own block, whether it stands above or below them.

Assays:
[1] = target: Vascular endothelial growth factor receptor 2 (Homo sapiens, UniProt P35968); experiment: Inhibition of human N-terminal GST tagged VEGFR-2 expressed in baculovirus infected Sf9 cells using poly (Glu,Tyr) 4:1 as substrate in presence of ATP by Kinase-Glo luminescence assay
Chain of Vascular endothelial growth factor receptor 2 (P35968 whole entry): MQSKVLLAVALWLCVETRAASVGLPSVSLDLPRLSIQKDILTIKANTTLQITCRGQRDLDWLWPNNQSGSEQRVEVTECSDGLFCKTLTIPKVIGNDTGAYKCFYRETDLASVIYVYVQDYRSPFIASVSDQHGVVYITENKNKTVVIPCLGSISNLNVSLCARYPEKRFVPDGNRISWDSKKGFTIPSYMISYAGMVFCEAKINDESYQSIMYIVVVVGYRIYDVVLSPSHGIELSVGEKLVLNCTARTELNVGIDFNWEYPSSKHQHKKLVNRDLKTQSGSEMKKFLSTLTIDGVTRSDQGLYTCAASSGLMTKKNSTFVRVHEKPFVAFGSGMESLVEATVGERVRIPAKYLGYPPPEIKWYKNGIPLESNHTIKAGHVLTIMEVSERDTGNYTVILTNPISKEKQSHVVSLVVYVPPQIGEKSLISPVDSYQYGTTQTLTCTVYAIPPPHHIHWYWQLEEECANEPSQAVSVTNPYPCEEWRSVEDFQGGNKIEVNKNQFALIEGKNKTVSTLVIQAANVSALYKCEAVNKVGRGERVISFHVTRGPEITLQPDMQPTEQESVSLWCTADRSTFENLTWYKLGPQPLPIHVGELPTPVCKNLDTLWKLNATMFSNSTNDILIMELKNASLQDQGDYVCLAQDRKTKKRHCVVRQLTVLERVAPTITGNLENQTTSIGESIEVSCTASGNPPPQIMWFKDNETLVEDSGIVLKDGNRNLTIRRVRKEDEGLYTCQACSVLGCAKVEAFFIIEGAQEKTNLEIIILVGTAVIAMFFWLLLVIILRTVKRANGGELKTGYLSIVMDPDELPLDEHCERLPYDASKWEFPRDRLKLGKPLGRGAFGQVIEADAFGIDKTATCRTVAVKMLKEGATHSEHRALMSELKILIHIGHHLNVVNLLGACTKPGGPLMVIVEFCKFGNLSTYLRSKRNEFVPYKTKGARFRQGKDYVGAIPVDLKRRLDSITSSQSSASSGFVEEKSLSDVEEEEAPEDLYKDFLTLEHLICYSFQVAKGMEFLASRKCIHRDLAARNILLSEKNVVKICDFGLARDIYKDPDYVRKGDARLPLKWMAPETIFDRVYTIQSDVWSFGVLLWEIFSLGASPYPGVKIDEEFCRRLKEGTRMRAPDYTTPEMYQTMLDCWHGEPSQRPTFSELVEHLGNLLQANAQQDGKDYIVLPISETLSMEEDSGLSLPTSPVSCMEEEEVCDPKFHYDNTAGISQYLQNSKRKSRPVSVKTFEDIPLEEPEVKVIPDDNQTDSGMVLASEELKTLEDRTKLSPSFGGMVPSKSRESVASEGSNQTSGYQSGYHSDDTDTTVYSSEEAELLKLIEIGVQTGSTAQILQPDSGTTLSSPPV

MCF7 [2] = experiment: Cytotoxicity against human MCF7 cells expressing VEGFR2 and wild type BRAF measured after 48 hrs by sulforhodamine B assay; assay type: functional, cell-based; settings: MCF7, 48 h
MCF7 [3] = experiment: Inhibition of VEGFR2 level in human MCF7 cells at 10 uM measured after 48 hrs by ELISA relative to control; assay type: functional; settings: MCF7, 48 h
MOLT-4 = experiment: Growth inhibition of human MOLT4 cells at 10 uM incubated for 48 hrs by sulforhodamine B assay relative to control; assay type: functional; settings: MOLT-4, 48 h, read-out: GI
ACHN = experiment: Growth inhibition of human ACHN cells at 10 uM incubated for 48 hrs by sulforhodamine B assay relative to control; assay type: functional; settings: read-out: GI
T47D [4] = experiment: Cytotoxicity against human T47D cells expressing wild type BRAF measured after 48 hrs by sulforhodamine B assay; assay type: functional, cell-based
T47D [5] = experiment: Growth inhibition of human T47D cells at 10 uM incubated for 48 hrs by sulforhodamine B assay relative to control; assay type: functional; settings: read-out: GI
NCI/ADR-RES = experiment: Growth inhibition of human NCI/ADR-RES cells at 10 uM incubated for 48 hrs by sulforhodamine B assay relative to control; assay type: functional; settings: read-out: GI
KM12 = experiment: Growth inhibition of human KM12 cells at 10 uM incubated for 48 hrs by sulforhodamine B assay relative to control; assay type: functional; settings: KM12, 48 h, read-out: GI
NCI-H522 = experiment: Growth inhibition of human NCI-H522 cells at 10 uM incubated for 48 hrs by sulforhodamine B assay relative to control; assay type: functional; settings: NCI-H522, 48 h, read-out: GI
HOP-62 = experiment: Growth inhibition of human HOP62 cells at 10 uM incubated for 48 hrs by sulforhodamine B assay relative to control; assay type: functional; settings: HOP-62, 48 h, read-out: GI
SK-MEL-5 = experiment: Growth inhibition of human SK-MEL-5 cells at 10 uM incubated for 48 hrs by sulforhodamine B assay relative to control; assay type: functional; settings: SK-MEL-5, 48 h, read-out: GI
MDA-MB-468 = experiment: Growth inhibition of human MDA-MB-468 cells at 10 uM incubated for 48 hrs by sulforhodamine B assay relative to control; assay type: functional; settings: MDA-MB-468, 48 h, read-out: GI
OVCAR-4 = experiment: Growth inhibition of human OVCAR4 cells at 10 uM incubated for 48 hrs by sulforhodamine B assay relative to control; assay type: functional; settings: OVCAR-4, 48 h, read-out: GI
NCI-H226 = experiment: Growth inhibition of human NCI-H226 cells at 10 uM incubated for 48 hrs by sulforhodamine B assay relative to control; assay type: functional; settings: NCI-H226, 48 h, read-out: GI
HCT-15 = experiment: Growth inhibition of human HCT15 cells at 10 uM incubated for 48 hrs by sulforhodamine B assay relative to control; assay type: functional; settings: HCT-15, 48 h, read-out: GI
PC-3 = experiment: Growth inhibition of human PC3 cells at 10 uM incubated for 48 hrs by sulforhodamine B assay relative to control; assay type: functional; settings: PC-3, 48 h, read-out: GI
A549 = experiment: Growth inhibition of human A549/ATCC cells at 10 uM incubated for 48 hrs by sulforhodamine B assay relative to control; assay type: functional; settings: A549, 48 h, read-out: GI
CCRF-CEM = experiment: Growth inhibition of human CCRF-CEM cells at 10 uM incubated for 48 hrs by sulforhodamine B assay relative to control; assay type: functional; settings: read-out: GI
[6] = target: Serine/threonine-protein kinase B-raf (Homo sapiens, UniProt P15056); experiment: Inhibition of human wild type BRAF by Kinase-Glo luminescence assay
Chain of Serine/threonine-protein kinase B-raf (P15056 whole entry): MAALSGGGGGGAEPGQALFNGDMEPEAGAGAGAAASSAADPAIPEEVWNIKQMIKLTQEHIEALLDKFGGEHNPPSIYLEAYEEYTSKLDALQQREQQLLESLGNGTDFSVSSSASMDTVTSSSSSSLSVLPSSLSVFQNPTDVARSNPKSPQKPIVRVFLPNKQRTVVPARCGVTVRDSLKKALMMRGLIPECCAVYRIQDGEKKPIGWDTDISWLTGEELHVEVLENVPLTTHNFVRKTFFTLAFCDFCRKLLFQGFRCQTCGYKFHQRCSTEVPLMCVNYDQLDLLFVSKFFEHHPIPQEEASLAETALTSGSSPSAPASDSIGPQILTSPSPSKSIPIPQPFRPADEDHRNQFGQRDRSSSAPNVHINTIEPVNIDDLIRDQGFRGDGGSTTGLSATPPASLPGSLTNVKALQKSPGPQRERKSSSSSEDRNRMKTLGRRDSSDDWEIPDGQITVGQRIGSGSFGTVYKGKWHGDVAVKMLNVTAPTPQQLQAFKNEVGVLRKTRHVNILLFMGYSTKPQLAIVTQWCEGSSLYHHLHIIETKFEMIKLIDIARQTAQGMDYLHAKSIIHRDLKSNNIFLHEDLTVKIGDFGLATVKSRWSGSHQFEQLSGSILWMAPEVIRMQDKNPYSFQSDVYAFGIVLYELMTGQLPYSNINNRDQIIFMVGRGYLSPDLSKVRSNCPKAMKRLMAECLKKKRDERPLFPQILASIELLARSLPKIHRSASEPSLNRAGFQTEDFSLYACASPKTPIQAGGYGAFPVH

CAKI-1 = experiment: Growth inhibition of human Caki1 cells at 10 uM incubated for 48 hrs by sulforhodamine B assay relative to control; assay type: functional; settings: CAKI-1, 48 h, read-out: GI
MCF7 [7] = experiment: Growth inhibition of human MCF7 cells at 10 uM incubated for 48 hrs by sulforhodamine B assay relative to control; assay type: functional; settings: MCF7, 48 h, read-out: GI
K562 = experiment: Growth inhibition of human K562 cells at 10 uM incubated for 48 hrs by sulforhodamine B assay relative to control; assay type: functional; settings: K562, 48 h, read-out: GI
UACC-62 = experiment: Growth inhibition of human UACC62 cells at 10 uM incubated for 48 hrs by sulforhodamine B assay relative to control; assay type: functional; settings: UACC-62, 48 h, read-out: GI
SF-295 = experiment: Growth inhibition of human SF295 cells at 10 uM incubated for 48 hrs by sulforhodamine B assay relative to control; assay type: functional; settings: SF-295, 48 h, read-out: GI
NCI-H23 = experiment: Growth inhibition of human NCI-H23 cells at 10 uM incubated for 48 hrs by sulforhodamine B assay relative to control; assay type: functional; settings: NCI-H23, 48 h, read-out: GI
A498 = experiment: Growth inhibition of human A498 cells at 10 uM incubated for 48 hrs by sulforhodamine B assay relative to control; assay type: functional; settings: A498, 48 h, read-out: GI
RPMI-8226 = experiment: Growth inhibition of human RPMI8226 cells at 10 uM incubated for 48 hrs by sulforhodamine B assay relative to control; assay type: functional; settings: RPMI-8226, 48 h, read-out: GI
UO-31 = experiment: Growth inhibition of human UO31 cells at 10 uM incubated for 48 hrs by sulforhodamine B assay relative to control; assay type: functional; settings: UO-31, 48 h, read-out: GI
OVCAR-8 = experiment: Growth inhibition of human OVCAR8 cells at 10 uM incubated for 48 hrs by sulforhodamine B assay relative to control; assay type: functional; settings: OVCAR-8, 48 h, read-out: GI
EKVX = experiment: Growth inhibition of human EKVX cells at 10 uM incubated for 48 hrs by sulforhodamine B assay relative to control; assay type: functional; settings: read-out: GI

Compound: COc1ccc(C(=O)CSc2nccc(Nc3ccc(C(=O)O)cc3)n2)cc1
pIC50 [1]: 5.84
pIC50 (MCF7 [2]): 4.42
inhibition at 10 µM (MCF7 [3]): 40%

Compound: O=C(O)c1ccc(Nc2ccnc(SCC(=O)c3ccc(-c4ccccc4)cc3)n2)cc1
pIC50 [1]: 6.24
pIC50 (MCF7 [2]): 4.31

Compound: O=C(O)c1ccc(Nc2ccnc(SCC(=O)c3ccc(Br)cc3)n2)cc1
pIC50 [1]: < 5.00
pIC50 (MCF7 [2]): 4.09

Compound: O=C(O)c1ccc(Nc2ccnc(SCC(=O)c3ccc([N+](=O)[O-])cc3)n2)cc1
pIC50 [1]: < 5.00
pIC50 (MCF7 [2]): 4.27

Compound: CCOC(=O)c1ccc(Nc2ccnc(SCC(=O)c3ccc(Cl)cc3)n2)cc1
pIC50 [1]: < 5.00
pIC50 (MCF7 [2]): 4.70

These reach a higher pIC50 [1]. Values come first.

pIC50 [1]: 6.31
Compound: COc1ccc(C(=O)CSc2nccc(Nc3ccc(C(C)=O)cc3)n2)cc1
pIC50 (MCF7 [2]): 4.10

pIC50 [1]: 6.47
Compound: CCOC(=O)c1ccc(Nc2ccnc(SCC(=O)c3ccc(-c4ccccc4)cc3)n2)cc1
pIC50 (MCF7 [2]): 4.16

pIC50 [6]: 6.19
pIC50 [1]: 6.66
Compound: CC(=O)c1ccc(Nc2ccnc(SCC(=O)c3ccc(Cl)cc3)n2)cc1
inhibition of growth at 10 µM (MOLT-4): 33%
inhibition of growth at 10 µM (ACHN): 11%
pIC50 (T47D [4]): 4.84
inhibition of growth at 10 µM (T47D [5]): 71%
inhibition of growth at 10 µM (NCI/ADR-RES): 46%
inhibition of growth at 10 µM (KM12): 11%
inhibition of growth at 10 µM (NCI-H522): 29%
inhibition of growth at 10 µM (HOP-62): 14%
inhibition of growth at 10 µM (SK-MEL-5): 65%
inhibition of growth at 10 µM (MDA-MB-468): 27%
inhibition of growth at 10 µM (OVCAR-4): 18%
inhibition of growth at 10 µM (NCI-H226): 21%
inhibition of growth at 10 µM (HCT-15): 14%
inhibition of growth at 10 µM (PC-3): 30%
inhibition of growth at 10 µM (A549): 20%
inhibition of growth at 10 µM (CCRF-CEM): 29%
inhibition of growth at 10 µM (CAKI-1): 21%
pIC50 (MCF7 [2]): 4.26
inhibition of growth at 10 µM (MCF7 [7]): 19%
inhibition of growth at 10 µM (K562): 19%
inhibition of growth at 10 µM (UACC-62): 34%
inhibition of growth at 10 µM (SF-295): 14%
inhibition of growth at 10 µM (NCI-H23): 13%
inhibition of growth at 10 µM (A498): 19%
inhibition of growth at 10 µM (RPMI-8226): 46%
inhibition of growth at 10 µM (UO-31): 33%
inhibition of growth at 10 µM (OVCAR-8): 29%
inhibition of growth at 10 µM (EKVX): 10%
